Assay [1] deals with UCP2 mRNA. The assay is described as follows: UCP2 mRNA levels in mouse tissues after treatment. Type of assay: in vivo, Swiss mice. The text has this: Regulation of UCP2 has been examined for factors that would regulate UCP1. In 11-week-old fed male Swiss mice, UCP2 mRNA was detected in BAT, WAT, thigh muscle and liver. […] Thus, UCP2 is regulated very differently than UCP1, which is induced by cold and β3 agonists.

The test system of assay [2] is mitochondria isolated from yeast. The assay is described as follows: Respiratory rates in mitochondria isolated from yeast. The assay is classed as biochemical. The text has this:
Respiratory rates have been measured in mitochondria isolated from yeast containing the empty pYeDP vector and the pUCP2 vector (Table 1). […] Addition of ADP stimulates respiration more in control mitochondria, again showing the UCP2 mitochondria are more uncoupled.

The subject of assay [3] is UCP2 expression in Rat Basophilic Leukemia cell (RBL). Kind of assay: Northern blot of UCP2 expression in RBL cells. Type of assay: cell-based. Details: dose or concentration left out as unconfirmed. The text has this: (A) A tumor mast cell line, the Rat Basophilic Leukemia cell (RBL), is a model system for studies of immune system signal transduction. In the RBL cell, binding of an antigen to the IgE receptor on the cell surface results in the activation of phospholipase C-gamma (PLCg). This event leads to the activation of protein kinase C (PKC) and an increase in intracellular calcium which are required for degranulation and gene expression in RBL cells. Several drugs can mimic the intracellular events and degranulation occuring in this cell type in response to antigen activation of the IgE receptor. The inophore Ionomycin causes the release of calcium from intracellular calcium stores and the phorbol ester PMA is able to directly activate PKC. Both of these drugs are required to achieve maximal activation of RBL cells. In order to determine the expression level of UCP2 in RBL cells, these cells were treated with Ionomycin ([…]), PMA ([…]) or both drugs.

Assay [4] has as its system UCP2 mRNA in macrophage RAW cells. Kind of assay: UCP2 mRNA in cultured macrophage RAW cells, northern normalized for actin. Type of assay: cell-based, mouse. Particulars: macrophages treated with LPS. The text has this:
(B) Bacterial lipopolysaccharide (LPS) regulates UCP2 mRNA in macrophages. Bacterial LPS is known to induce many of the features of infection, including fever. Thioglycolate elicited mouse macrophage (peritoneal exudate cells, PEC) have been studied for regulation of UCP2 mRNA by LPS. […] A study has also be made of UCP2 expression in cultured mouse macrophage RAW cells. These cells express UCP2. […] The LPS mediated decrease of UCP2 is not affected by indomethacin or by PGE2. All fo the macrophage northerns are normalized for actin expression and have been repeated at least once. […] The results are consistent with a role of UCP2 in immune function.

The conditions of assay [5]: Roe et al, Metabolism 46:359 (1997); cited from earlier work.
The subject of assay [6] is mitochondrial potential of transformed yeast. The assay is described as follows: Flow cytometry of mitochondrial membrane potential with DiOC6(3) in transformed yeast. The assay is classed as cell-based, Saccharomyces cerevisiae. An excerpt: FIG. 2. Flow cytometry analysis of membrane potential following the expression of UCP2 in S. cerevisiae; comparison of wild-type UCP1 and non-active UCP1 mutants. The number of cells (counts, Y-axis) is represented on a logarithmic scale of 1024 channels. The X-axis is a logarithmic scale of fluorescence intensity. A shift of the curve towards the left indicates a decreased mitochondrial potential. The horizontal bar on the left indicates the position of cells treated with mCICCP, a chemical uncoupler. The expression of UCP2, UCP1 or UCPmut mRNA in recombinant yeast, as well as its absence in wild type yeast, was checked by Northern blots.
(§1) Yeast transfections and functional analysis using flow cytometry. The diploid yeast (Saccharomyces cerevisiae) strain W303 (a/α; ade2-10; his 3-11-15; leu2-2, 112; ura3-1; can1-100; try-Δ1) was used for expression of UCP2. The pYedP-UCP2 or UCPmut expression vectors were introduced into yeast by electroporation and transformants were selected for uracil […] as described by Bouillaud et al (EMBO J. 13:1990 (1994)). Expression of the UCP2, UCP1 or UCPmut under the control of the gal-cyc promoter was induced by galactose in the absence of glucose. Growth of yeast for flow cytometry analysis and measurement of mitochondrial membrane potential using the DiOC6(3) fluorescent probe (3,3′-dihexyloxacarbocyanine iodine, Molecular Probes, Eugene, Oreg.) are described by Bouillaud et al (EMBO J. 13:1990 (1994)).
The in vivo decrease of membrane potential associated with uncoupling of respiration was analyzed by flow cytometry of yeast labeled with the potential sensitive probe DiOC6(3) . […] In the case of UCP2, 2 peaks were observed, one equivalent to cells expressing UCP1 and a second peak corresponding to a very low mitochondrial potential. Mean fluorescence intensities were: empty vector, 65.5; UCPmut, 43.0; UCP1, 22.5; UCP2, 15.5 and UCP2+mCICCP, 0.4 (FIG. 2). Very similar results were obtained in two additional experiments.

For assay [7], the system named is yeast (Saccharomyces cerevisiae) strain W303. The assay is described as follows: Growth rate (instantaneous generation time) of transformed yeast after galactose induction. The assay is classed as cell-based. Particulars: liquid medium, galactose-induced expression; ±SD.
Excerpt: as §1
To test the hypothesis that UCP2 is an uncoupling protein, yeast were transfected with UCP2 in an expression vector as previously reported for UCP1 (Bouillaud et al, EMBO J. 13:1990 (1994)). Rates of growth in liquid medium of transformed yeast were measured in the presence of galactose, which induces expression. Instantaneous generation times were compared after induction of vector, UCP2, control (empty) and UCP1 expression vectors. […]

[8] abbreviates: yeast carrying the expression vector, lower = decreased mitochondrial potential.

These results are taken from patent publication US20030119775A1, “Respiration uncoupling protein” (DUKE UNIVERSITY, priority 1997, published 2003).

Regarding `C[C@H](Cc1ccc2c(c1)OC(C(=O)[O-])(C(=O)[O-])O2)NC[C@H](O)c1cccc(Cl)c1.[Na+].[Na+]` [CL316,243], the “Effect on UCP2 mRNA levels” value in assay [1] (11-week-old fed male Swiss mice, BAT, WAT, thigh muscle and liver, treatment for 10 days) is recorded as “did not influence UCP2 mRNA levels”.
Regarding `N#CC(C#N)=NNc1ccc(OC(F)(F)F)cc1` [FCCP], the “Respiratory rate increase factor upon addition of uncoupler” value was 7.1 in assay [2] (control (pYeDP) mitochondria) and 4.3 in assay [2] (pUCP2 mitochondria).
Regarding `C[C@H](CCC(=O)O)C[C@H](C)C[C@H](C)C(=O)/C=C(\O)[C@H](C)C[C@H](C)C/C=C/[C@@H](C)[C@@H](O)[C@@H](C)[C@@H](O)C[C@@H]1CC[C@@](C)([C@H]2CC[C@@](C)([C@@H](C)O)O2)O1` [Ionomycin], the “Induction of UCP2 expression versus untreated control cells” value in assay [3] is around 4 fold.
Regarding `CCCCC[C@H](O)/C=C/[C@H]1[C@H](O)CC(=O)[C@@H]1C/C=C\CCCC(=O)O` [PGE2], in assay [4], the “Effect on the LPS mediated decrease of UCP2” value was “not affected”.
Regarding `CCCCCCCCCCCCCC(=O)O[C@@H]1[C@@H](C)[C@@]2(O)[C@@H](C=C(CO)C[C@]3(O)C(=O)C(C)=C[C@@H]23)[C@@H]2C(C)(C)[C@]12OC(C)=O` [PMA], the “Induction of UCP2 expression versus untreated control cells” value in assay [3] is reported as around 4 fold.
As to `COc1ccc2c(c1)c(CC(=O)O)c(C)n2C(=O)c1ccc(Cl)cc1` [indomethacin], the “Effect on increased O2 consumption associated with cachexia of malignancy” value in assay [5] was “attenuated”. Besides, the “Effect on the LPS mediated decrease of UCP2” value in assay [4] is listed as “not affected”.
As for `N#CC(C#N)=NNc1cccc(Cl)c1` [mCICCP], in assay [6] (UCP2-expressing yeast treated with mCICCP), the “Mean fluorescence intensity (DiOC6(3))” value amounted to 0.4.
For the molecule “leptin: leptin, shown to increase sympathetic outflow to brown fat”, in assay [1] (2 μg, 2×/day for 4 days), the “Effect on UCP2 expression” value is on record as “failed to increased UCP2 expression”. The “Influence on UCP2 expression” value in assay [1] (general statement: in vitro or in vivo) is “not to influence UCP2 expression”.

B1: UCP2: uncoupling protein-2, expressed in yeast from the pYedP-UCP2 expression vector (protein, UniProt P55851 1-309, looked up)
Dicarboxylate carrier SLC25A8: MVGFKATDVPPTATVKFLGAGTAACIADLITFPLDTAKVRLQIQGESQGPVRATASAQYRGVMGTILTMVRTEGPRSLYNGLVAGLQRQMSFASVRIGLYDSVKQFYTKGSEHASIGSRLLAGSTTGALAVAVAQPTDVVKVRFQAQARAGGGRRYQSTVNAYKTIAREEGFRGLWKGTSPNVARNAIVNCAELVTYDLIKDALLKANLMTDDLPCHFTSAFGAGFCTTVIASPVDVVKTRYMNSALGQYSSAGHCALTMLQKEGPRAFYKGFMPSFLRLGSWNVVMFVTYEQLKRALMAACTSREAPF
In assay [7], B1 gave an Instantaneous generation time of 260 ± 29 min. Further, the “Mean fluorescence intensity (DiOC6(3))” value in assay [6] (setting [8]) amounted to 15.5.

B2: UCP1: uncoupling protein-1 of brown adipose tissue, expressed in yeast for comparison (protein, UniProt P25874 1-307, looked up)
Mitochondrial brown fat …: MGGLTASDVHPTLGVQLFSAGIAACLADVITFPLDTAKVRLQVQGECPTSSVIRYKGVLGTITAVVKTEGRMKLYSGLPAGLQRQISSASLRIGLYDTVQEFLTAGKETAPSLGSKILAGLTTGGVAVFIGQPTEVVKVRLQAQSHLHGIKPRYTGTYNAYRIIATTEGLTGLWKGTTPNLMRSVIINCTELVTYDLMKEAFVKNNILADDVPCHLVSALIAGFCATAMSSPVDVVKTRFINSPPGQYKSVPNCAMKVFTNEGPTAFFKGLVPSFLRLGSWNVIMFVCFEQLKRELSKSRQTMDCAT
In assay [7], B2 had an Instantaneous generation time of 226 ± 10 min. In assay [6] (setting [8]), the “Mean fluorescence intensity (DiOC6(3))” value is on record as 22.5.
